{
  "source": "patent US5147866A",
  "about": "“1,2-diamino-cyclobuten-3,4-dione derivatives” (Beecham Group p.l.c., priority 1989, dated 1992)",
  "key": {"[1]": {"test": "Antihypertensive activity: systolic blood pressure, tail cuff method, spontaneously hypertensive rats", "assay_type": "in vivo", "conditions": "spontaneously hypertensive rats (systolic blood pressure >180 mmHg)", "description": "Systolic blood pressures were recorded by a modification of the tail cuff method described by I. M. Claxton, M. G. Palfreyman, R. H. Poyser, R. L. Whiting, European Journal of Pharmacology, 37, 179 (1976). A W+W BP recorder, model 8005 was used to display pulses. Prior to all measurements rats were placed in a heated environment (33.5°±0.5° C.) before transfer to a restraining cage. Each determination of blood pressure was the mean of at least 5 readings. Spontaneously hypertensive rats (ages 12-18 weeks) with systolic blood pressures >180 mmHg were considered hypertensive."}, "[2]": {"tested_on": "guinea-pig isolated trachealis", "test": "Bronchodilator activity: inhibition of spontaneous tone in guinea-pig isolated trachealis", "conditions": "Cavia porcellus; tracheal spirals, Krebs solution 37° C.; relaxation as percentage of total relaxation with 10^-3 M isoprenaline", "description": "Male guinea pigs (300-600 g) were stunned by a blow to the head and bled from the carotid artery. The trachea was exposed, dissected free of connective tissue, and transferred to oxygenated Krebs solution at 37° C. Next, spirals (2 per trachea) were prepared by cutting the whole trachea spirally along its longitudinal axis and then dividing this spiral lengthwise. Each preparation was mounted, using silk thread, in a 10 ml organ bath filled with Krebs solution at 37° C. and bubbled with 5% CO2 with O2. The resting tension of the preparations was set at 2 g and changes in muscle tension were monitored isometrically by means of a UFI (2 oz) force and displacement transducer (Ormed Ltd) connected to a Linseis pen recorder. All preparations were allowed to equilibrate for 60 minutes. During this equilibration period the preparations were washed by upward displacement at 15 minute intervals and, if necessary, the resting tension was readjusted to 2 g using a mechanical micromanipulator system.\nOnce a steady resting tension had been obtained, the preparations were dosed […] with the test compound (10^-8 -2×10^-5 M), and finally a maximum relaxation achieved by addition of 10^-3 M isoprenaline. The fall in tension evoked by the test compound was expressed as a percentage of the total relaxation evoked in the presence of […]. Appropriate concentration-relaxation curves were then constructed and values for potency (IC50) were obtained.\n[The composition of Krebs solution is: sodium chloride 118.07 mM, sodium hydrogen carbonate 26.19 mM, potassium chloride 4.68 mM, potassium orthophosphate 1.18 mM, magnesium sulphate septahydrate 1.8 mM and calcium chloride 2.52 mM;pH ca. 7.45.]"}},
  "data": [
    {"smiles": "CC1(C)Oc2ccc(C#N)cc2[C@@H](Nc2c(N)c(=O)c2=O)[C@@H]1O", "note": "(relative stereo) [Example 1]", "values": [
      {"measurement": "lowers blood pressure by", "setting": "[1]; 3 mg/kg p.o.", "result": 50, "unit": "%"},
      {"measurement": "IC50", "setting": "[2]", "result": 3.7, "unit": "µM"}
    ]},
    {"smiles": "CN(c1c(N)c(=O)c1=O)[C@@H]1c2cc(C#N)ccc2OC(C)(C)[C@H]1O", "note": "(relative stereo) [Example 3, trans-N'-[4-(6-Cyano-3,4-dihydro-2,2-dimethyl-2H-1-benzopyran-3-ol)]-2-amino-1-methylaminocyclobutene-3,4-dione]", "values": [
      {"measurement": "lowers blood pressure by", "setting": "[1]; 3 mg/kg p.o.", "result": 58, "unit": "%"},
      {"measurement": "IC50", "setting": "[2]", "result": 3.1, "unit": "µM"}
    ]},
    {"smiles": "CCc1ccc2c(c1)[C@@H](N(C)c1c(N)c(=O)c1=O)[C@H](O)C(C)(C)O2", "note": "[Example 12, trans-(3S,4R)-N^1-[4-(6-Ethyl-3,4-dihydro-2,2-dimethyl-2H-1-benzopyran-3-ol)]-2-amino-1-methylaminocyclobutene-3,4-dione]", "values": [
      {"measurement": "lowers blood pressure by", "setting": "[1]; 0.05 mg/Kg p.o.", "result": 24, "unit": "%"}
    ]},
    {"smiles": "CNc1c(N[C@@H]2c3cc(C#N)ccc3OC(C)(C)[C@H]2O)c(=O)c1=O", "note": "(relative stereo) [Example 2]", "values": [
      {"measurement": "lowers blood pressure by", "setting": "[1]; 3 mg/kg p.o.", "result": 17, "unit": "%"},
      {"measurement": "IC50", "setting": "[2]", "result": 4, "unit": "µM"}
    ]}
  ]
}
